Assay results: patent US8846670B2, “1,2,3,4-tetrahydro-pyrimido(1,2-a)pyrimidin-6-one derivatives, preparation thereof, and pharmaceutical use thereof” (priority 2009, dated 2014)

How the values were obtained:
Type in all cases: cell-based
[1] = test system: AKT protein phosphorylated on serine 473 (pAKT-S473) in PC3 human prostate carcinoma line; assay: Study of pAKT expression in PC3 human prostate carcinoma cells measured by western blotting (Test A); conditions: PC-3, 1 to 2 hours incubation, approximate absolute IC50, mean of two experiments
Method: The inhibitory activity of the molecules on AKT phosphorylation is measured either by western blotting using the technique described below, or by the MSD Multi-spot Biomarker detection technique from Meso Scale Discovery also described below. […] Study of pAKT Expression in Pc3Human Prostate Carcinoma Cells Measured by Western Blotting (Test A): This test is based on measuring the expression of the AKT protein phosphorylated on […]. […] On day 2, the cells are incubated in the presence or absence of the test products for 1 to 2 hours at 37° C. in the presence of 5% CO2. The molecules, diluted in dimethyl sulphoxide (DMSO Sigma #D2650), are added from a 10-times concentrated stock solution, the final percentage of DMSO being 0.1%. […] After this incubation, the cells are lysed for the preparation of the proteins. […] The lysate is centrifuged for 10 min at 6000 rpm. 155 μl of supernatant are recovered. 150 μl are incubated for denaturation for 5 min at 95° C. in the presence of 4× NuPAGE LDS Sample Buffer diluted 4-fold (InVitrogen ref NP0007) and of 10× NuPAGE Sample Reducing Agent diluted 10-fold (InVitrogen ref NP0009). These samples are then frozen at -20° C. […] The gel is then transferred on to an Invitrolon PVDF membrane (Invitrogen #LC2007) permeabilised beforehand for a few seconds in ethanol (Ethanol Fischer Scientific #E/0600DF/15). The transfer is carried out in a Biorad tank at 30 volts overnight or at 60 volts for 3 hours, in the presence of 20× NUPAGE Transfer Buffer diluted 20-fold (InVitrogen ref NP0006). The membrane is then saturated in saturating solution composed of TBS (10× Tris Buffered Saline, Sigma #T5912, diluted 10-fold), 0.1% Tween 20 (Sigma #P5927) and 3% BSA (Bovine Serum Albumin Fraction V, Sigma #A4503) for 6 h after overnight transfer or else for 1 h after transfer for a period of 3 h. […] Two rinses for 5 min in washing solution composed of TBS and 0.1% Tween 20 are carried out before hybridisation of the secondary antibodies. The secondary antibodies are diluted to 1/10000th for the rabbit anti-Mouse IgG HRP antibody ([…] Promega) and to 1/10000th for the goat anti-Rabbit IgG HRP antibody ([…] Promega) in saturating solution, and then shaken for 1 h at ambient temperature. Two rinses for 30 min in washing solution are carried out and then a rinse for 5 min in H2O is carried out in order to eliminate the remaining Tween 20. […] The luminescence is read with the FujiFilm device (Ray Test). The FUJI device measures the total luminescence signal obtained (AU) for each band selected. It then subtracts the background noise (BG) proportional to the size of the band selected (Area), said background noise being calculated from a specific background noise band, with a view to obtaining the specific signal (AU-BG) for each band. The band obtained in the absence of product and in the presence of 0.1% DMSO is considered to be the 100% signal. The software calculates the % specific activity (Ratio) obtained for each band selected as a function of this 100% signal. The percentage inhibition is calculated for each concentration according to the formula (100%-Ratio). Two independent experiments make it possible to calculate the mean of the percentages of inhibition obtained at a given concentration for the products tested only at one concentration. […] Two independent experiments make it possible to calculate the mean of the IC50 values.

[2] = test system: translocation of the LC3 protein in Hela GFP-LC3 cells; assay: Study of the translocation of the LC3 protein in Hela human cells, measured by image analysis cytometry (Test C, autophagy); conditions: Homo sapiens, HeLa, 2 h, Hela GFP-LC3 cells with LC3 granulations, EBSS + 10 μM hydroxychloroquine, absolute IC50
Method: The inhibitory activity of the molecules on autophagy is measured by the translocation of the LC3 protein from the cytoplasm to the autophagosomes. For this, Hela cells were transfected with a vector encoding the chimeric protein GFP-LC3. A Hela clone stably expressing the GFP-LC3 protein was selected.
Study of the Translocation of the LC3 Protein in Hela Human Cells, Measured by Image Analysis Cytometry (Test C):
On day 2, the cells are washed twice with EBSS (Sigma #E3024). The cells are then incubated in EBSS, 10 μM of hydroxychloroquine and test products for 2 h at 37° C. in the presence of 5% CO2. The molecules are diluted in dimethyl sulphoxide (DMSO Sigma #D2650), the final DMSO percentage being 0.1%.
After this incubation, the cells are fixed with 4% paraformaldehyde (Sigma #HT501128 4 L) for 10 min. […] The 96-well plates are then read with the iCyte image analysis cytometer (Compucyte).
Two independent experiments make it possible to calculate the mean of the IC50 values.

[3] = test system: P. falciparum (highly chloroquine-resistant strain Fcm29-Cameroon); assay: Antimalarial activity test (radioactive micromethod of Desjardins); conditions: Plasmodium falciparum, Erythrocyte, infected human erythrocytes, 48 h, tritiated hypoxanthine incorporation
Method: Antimalarial Activity Test
The P. falciparum strains are cultured in solutions of RPM! […] For each assay, the parasites are incubated with selected concentrations of drugs for 48 h at 37° C. in a humid atmosphere and at 5% CO2. Artemisinin, artesunate and also chloroquine diphosphate are used as reference molecules. The first dilution of the drug is prepared at 1 mg/ml in dimethyl sulphoxide. The range of successive daughter solution dilutions is also prepared in dimethyl sulphoxide. […] These dilutions are then added to the parasites in culture in the microplates. […] The growth of the parasites is measured by incorporation of tritiated hypoxanthine (added 24 h after the beginning of the exposure to the drug) compared with the incorporation in the absence of drug.

[4] = test system: AKT protein phosphorylated on serine 473 (P-AKT-S473) in PC3 human prostate carcinoma line; assay: Study of pAKT expression in PC3 human prostate carcinoma cells measured by the MSD Multi-spot Biomarker Detection technique (Test B); conditions: Homo sapiens, PC-3, P-AKT-S473 in PC3 cells, MSD sandwich immunoassay, 1 to 2 h incubation; absolute IC50, mean of 2 experiments
Method: The inhibitory activity of the molecules on AKT phosphorylation is measured either by western blotting using the technique described below, or by the MSD Multi-spot Biomarker detection technique from Meso Scale Discovery also described below.
Study of pAKT Expression in PC3Human Prostate Carcinoma Cells Measured by the MSD Multi-Spot Biomarker Detection Technique from Meso Scale Discovery (Test B):
The primary antibody specific for P-AKT-S473 (Kit #K151CAD) is coated onto an electrode in each well of the 96-well plates of the MSD kit: after the addition of a protein lysate to each well, the signal is visualised by adding a secondary detection antibody labelled with an electrochemiluminescent compound. The procedure followed is that described in the kit.
On day 2, the cells are incubated in the presence or absence of the test products for 1 to 2 h at 37° C. in the presence of 5% of CO2. The molecules, diluted in dimethyl sulphoxide (DMSO Sigma #D2650), are added from a 20-times concentrated stock solution, the final percentage of DMSO being 0.1%.
After this incubation, the cells are lysed for the preparation of the proteins. […] At this stage, the plates containing the lysates can be frozen at −20° C. or at −80° C.
The wells of the 96-well plates of the MSD kit are saturated for 1 h at ambient temperature with the blocking solution of the MSD kit. Four washes are carried out with 150 μl of Tris Wash Buffer of the MSD kit. The lysates previously prepared are transferred into the 96-well multi-spot plates of the MSD kit and incubated for 1 h at ambient temperature, with shaking. Four washes are carried out with 150 μl of Tris Wash Buffer of the MSD kit. 25 μl of the MSD sulfo-tag detection antibody solution are added to the wells and incubated for 1 h at ambient temperature, with shaking. Four washes are carried out with 150 μl of Tris Wash Buffer of the MSD kit. 150 μl of Read Buffer of the MSD kit are added to the wells and the plates are read immediately on the S12400 instrument from Meso Scale Discovery.
The instrument measures a signal for each well. Wells without cells and containing the lysis buffer serve to determine the background noise that will be subtracted from all the measurements (min). The wells containing cells in the absence of product and in the presence of 0.1% DMSO are considered to be the 100% signal (max). The percentage inhibition is calculated for each concentration of test product according to the following formula: (1−((test−min)/(max−min)))×100.
2 independent experiments make it possible to calculate the mean of the IC50 values.

Compound	IC50 [1]	IC50 [2]	IC50 [4]	inhibition at 1 µM [3]	inhibition at 0.1 µM [3]
C[C@@H](c1ccc(Br)cc1)N1c2nc(N3CCOCC3)cc(=O)n2CC[C@H]1C(F)(F)F (single isomer, unassigned) [Example 10, (8S)-9-[R1R or 1S)-1-(4-bromophenyl)ethyl]-2-(morpholin-4-yl)-8-(trifluoromethyl)-6,7,8,9-tetrahydro-4H-pyrimido[1,2-a]pyrimidin-4-one]	0.357 µM	0.249 µM	–	–	–
O=c1cc(N2CCOCC2)nc2n1CC[C@@H](C(F)(F)F)N2Cc1ccc(F)cc1 [Example 17, (8S)-9-(4-fluorobenzyl)-2-(morpholin-4-yl)-8-(trifluoromethyl)-6,7,8,9-tetrahydro-4H-pyrimido[1,2-a]pyrimidin-4-one]	0.35 µM	0.119 µM	–	–	–
COc1ccc(C(C)N2c3nc(N4CCOCC4)cc(=O)n3CC[C@H]2C(F)(F)F)cc1 (mixture of isomers) [Example 9, (8S)-9-[(1R and 1S)-1-(4-methoxyphenyl)ethyl]-2-(morpholin-4-yl)-8-(trifluoromethyl)-6,7,8,9-tetrahydro-4H-pyrimido[1,2-a]pyrimidn-4-one]	0.676 µM	–	–	–	–
C[C@H](c1cccc(F)c1)N1c2nc(N3CCOCC3)cc(=O)n2CC[C@H]1C(F)(F)F (single isomer, unassigned) [Example 16, (8S)-9-[(1R or 1S)-1-(3-fluorophenyl)ethyl]-2-(morpholin-4-yl)-8-(trifluoromethyl)-6,7,8,9-tetrahydro-4H-pyrimido[1,2-a]pyrimidin-4-one]	0.041 µM	0.187 µM	–	–	–
COc1ccc(CCN2c3nc(N4CCOCC4)cc(=O)n3CCC2C(F)(F)F)cc1 (racemic) [Example 2, (R,S)-9-[2-(4-methoxyphenyl)ethyl]-2-morpholin-4-yl-8-trifluoromethyl-6,7,8,9-tetrahydropyrimido[1,2-a]pyrimidin-4-one]	0.315 µM	0.016 µM	–	–	–
COc1ccc(CCN2c3nc(N4CCOCC4)cc(=O)n3CC[C@H]2C(F)(F)F)cc1 [Example 1, (S)-9-[2-(4-methoxyphenyl)ethyl]-2-morpholin-4-yl-8-trifluoromethyl-6,7,8,9-tetrahydropyrimido[1,2-a]pyrimidin-4-one]	0.015 µM	0.011 µM	–	99%	79%

Now from value to molecule, other results behind:

IC50 [1]	IC50 [2]	IC50 [4]	Compound	inhibition at 1 µM [3]	inhibition at 0.1 µM [3]
0.335 µM	> 1 µM	–	O=C(c1ccccc1)N1c2nc(N3CCOCC3)cc(=O)n2CC[C@H]1C(F)(F)F [Example 18, (S)-9-Benzoyl-2-morpholin-4-yl-8-trifluoromethyl-6,7,8,9-tetrahydropyrimido[1,2-a]pyrimidin-4-one]	–	–
0.075 µM	0.462 µM	–	C[C@@H](c1ccccc1)N1c2nc(N3CCOCC3)cc(=O)n2CC[C@H]1C(F)(F)F (single isomer, unassigned) [Example 8, (8S)-2-(morpholin-4-yl)-9-[(1R or 1S)-1-phenylethyl]-8-(trifluoromethyl)-6,7,8,9-tetrahydro-4H-pyrimido[1,2-a]pyrimidin-4-one]	–	–
0.06 µM	> 1 µM	–	O=c1cc(N2CCOCC2)nc2n1CC[C@@H](C(F)(F)F)N2c1ccncc1 [Example 20, (S)-2-morpholin-4-yl-9-pyridin-4-yl-8-trifluoromethyl-6,7,8,9-tetrahydropyrimido[1,2-a]pyrimidin-4-one]	–	–
6.6 µM	0.441 µM	–	O=c1cc(N2CCOCC2)nc2n1CC[C@@H](C(F)(F)F)N2c1ccccc1 [Example 12, (8S)-2-(morpholin-4-yl)-9-phenyl-8-(trifluoromethyl)-6,7,8,9-tetrahydro-4H-pyrimido[1,2-a]pyrimidin-4-one]	59%	–
0.265 µM	0.569 µM	–	O=c1cc(N2CCOCC2)nc2n1CC[C@@H](C(F)(F)F)N2Cc1ccccc1 [Example 4, (S)-9-benzyl-2-morpholin-4-yl-8-trifluoromethyl-6,7,8,9-tetrahydropyrimido[1,2-a]pyrimidin-4-one]	97%	19%
0.015 µM	0.02 µM	–	O=c1cc(N2CCOCC2)nc2n1CC[C@@H](C(F)(F)F)N2CCc1ccccc1 [Example 3, (S)-2-morpholin-4-yl-9-phenethyl-8-trifluoromethyl-6,7,8,9-tetrahydropyrimido[1,2-a]pyrimidin-4-one]	–	–
2.71 µM	> 1 µM	0.007 µM	O=c1cc(N2CCOCC2)nc2n1CC[C@@H](C(F)(F)F)N2c1ccccc1F [Example 15, (8S)-9-(2-fluorophenyl)-2-(morpholin-4-yl)-8-(trifluoromethyl)-6,7,8,9-tetrahydro-4H-pyrimido[1,2-a]pyrimidin-4-one]	–	–
